Experimental findings from US6683211B1, “Phenyl-propargylether derivatives” (priority 2000, dated 2004) are described below.

The term melting point denotes the temperature of the solid-liquid transition.

In series [1] the test system is Phytophthora. In words: D-2a) residual-protective action against Phytophthora on tomato plants. Particulars: Phytophthora, 120 h; 200 ppm; test D-2a) residual-protective, evaluated after 5 days, read-out: inhibit fungal infestations. The class given is in vivo. How it is done: (§1) D-2: Action Against Phytophthora on Tomato Plants
(§2) a) Residual-protective Action
After a cultivation period of 3 weeks, tomato plants are sprayed with a spray mixture (0.02% active ingredient) prepared from a wettable powder formulation of the test compound. After 48 hours, the treated plants are infected with a sporangia suspension of the fungus. Fungus infestation is evaluated after incubation of the infected plants for 5 days at 90-100% relative humidity and +20° C.

The test system of series [2] is Plasmopara viticola. The series is described as follows: D-1b) residual-curative action against Plasmopara viticola on vines. The format is in vivo. The following applies: Plasmopara viticola, 144 h; 200 ppm; test D-1b) residual-curative; vine seedlings; evaluated 6 days after infection; read-out: inhibit fungal infestations. As for the experimental part:
(§3) D-1: Action Against Plasmopara viticola on Vines
b) Residual-curative Action
Vine seedlings are infected at the 4- to 5-leaf stage with a sporangia suspension of the fungus. After incubation for 24 hours in a humidity chamber at 95-100% relative humidity and +20° C., the infected plants are dried and sprayed with a spray mixture (0.02% active ingredient) prepared from a wettable powder formulation of the test compound. After the spray coating has dried, the treated plants are placed in the humidity chamber again.
Fungus infestation is evaluated 6 days after infection.

Series [3] deals with Phytophthora. The series is described as follows: D-3b) systemic action against Phytophthora on potato plants. The class given is in vivo. The following applies: Phytophthora, 96 h; 200 ppm; test D-3b) systemic (soil watering); potato plants (Bintje); evaluated after 4 days; read-out: inhibit fungal infestations. As for the experimental part:
(§4) D-3: Action Against Phytophthora on Potato Plants
2-3 week old potato plants (Bintje variety) are watered with a spray mixture (0.02% active ingredient based on the volume of the soil) prepared from a wettable powder formulation of the test compound. […] After 48 hours, the treated plants are infected with a sporangia suspension of the fungus. Fungus infestation is evaluated after incubation of the infected plants for 4 days at 90-100% relative humidity and +20° C. Fungal infestation is effectively controlled with compounds of Tables 1 to 35. Compounds E1.003, E1.004, E1.009, E1.011, E1.012, E1.019, E1.020, E1.021, E1.022, E1.025, E1.031, E1.032, E1.033, E1.038, E1.045, E1.049, E1.050, E1.053, E1.085, E1.089, E1.090, E1.091, E1.102, E1.110, E1.112, E1.121, E1.125, E1.129 at 200 ppm inhibit fungal infestations in both tests D-3a) and D-3b) by 80-100%.

In series [4] the test system is Plasmopara viticola. In words: D-1a) residual-protective action against Plasmopara viticola on vines. The format is in vivo. The following applies: Plasmopara viticola, 144 h; 200 ppm; test D-1a) residual-protective; vine seedlings; evaluated after 6 days; read-out: inhibit fungal infestations. How it is done: as §3, §2
Vine seedlings are sprayed at the 4- to 5-leaf stage with a spray mixture (0.02% active ingredient) prepared from a wettable powder formulation of the test compound. After 24 hours, the treated plants are infected with a sporangia suspension of the fungus. Fungus infestation is evaluated after incubation for 6 days at 95-100% relative humidity and +20° C.

Series [5] deals with Phytophthora. The series is described as follows: D-2b) systemic action against Phytophthora on tomato plants. The class given is in vivo. Particulars: Phytophthora, 96 h; 200 ppm; test D-2b) systemic (soil watering), evaluated after 4 days, read-out: inhibit fungal infestations. As for the experimental part: as §1
After a cultivation period of 3 weeks, tomato plants are watered with a spray mixture (0.02% active ingredient based on the volume of the soil) prepared from a wettable powder formulation of the test compound. […] After 96 hours, the treated plants are infected with a sporangia suspension of the fungus. Fungus infestation is evaluated after incubation of the infected plants for 4 days at 90-100% relative humidity and +20° C. […] Compounds E1.003, E1.004, E1.009, E1.011, E1.012, E1.014, E1.018, E1.019, E1.020, E1.021, E1.022, E1.023, E1.025, E1.031, E1.032, E1.033, E1.038, E1.040, E1.044, E1.045, E1.049, E1.050, E1.053, E1.055, E1.057, E1.064, E1.085, E1.089, E1.090, E1.091, E1.102, E1.08, E1.110, E1.112, E1.121, E1.125, E1.129, E1.139 and E1.141 at 200 ppm inhibit fungal infestations in both tests D-2a) and D-2b) by 80-100%.

Series [6] concerns Phytophthora. In words: D-3a) residual-protective action against Phytophthora on potato plants. The format is in vivo. Particulars: Phytophthora, 96 h; 200 ppm; test D-3a) residual-protective; potato plants (Bintje); evaluated after 4 days; read-out: inhibit fungal infestations. As for the experimental part: as §4, §2
2-3 week old potato plants (Bintje variety) are sprayed with a spray mixture (0.02% active ingredient) prepared from a wettable powder formulation of the test compound. After 48 hours, the treated plants are infected with a sporangia suspension of the fungus. Fungus infestation is evaluated after incubation of the infected plants for 4 days at 90-100% relative humidity and +20° C.

On to `C#CCOc1ccc(CCNC(=O)C(Cl)c2ccc(Br)cc2)cc1OC` (stereo not drawn), for which the melting point fell in the range of 100 to 102 °C.
As to `C#CCOc1ccc(CCNC(=O)C(OCC#C)c2ccc(Br)cc2)cc1OC` (stereo not drawn) [Compound E1.022, 2-(4-bromo-phenyl)-N-[2-(3-methoxy-4-prop-2-ynyloxy-phenyl)-ethyl]-2-prop-2-ynyloxy-acetamide], the melting point is 92 to 94 °C. For the same molecule, the inhibition at 200 ppm in series [1] lay within 80 to 100%. The inhibition at 200 ppm in series [2] lay in the range of 80 to 100%. For the same molecule, the inhibition at 200 ppm in series [3] lay within 80 to 100%. In addition, the inhibition at 200 ppm in series [4] was 80 to 100%. Moreover, in series [5], the inhibition at 200 ppm was 80 to 100%. Also, the inhibition at 200 ppm in series [6] fell in the range of 80 to 100%.
Molecule `C#CCOc1ccc(CCNC(=O)C(OCC#C)c2ccc(C)cc2)cc1OC` (stereo not drawn) [Compound E1.045, 2-(4-tolyl)-N-[2-(3-methoxy-4-prop-2-ynyloxy-phenyl)-ethyl]-2-prop-2-ynyloxy-acetamide] had a melting point of 81 to 82 °C. Also, the inhibition at 200 ppm in series [1] was 80 to 100%. In addition, the inhibition at 200 ppm in series [2] fell in the range of 80 to 100%. Also, in series [3], the inhibition at 200 ppm fell in the range of 80 to 100%. The inhibition at 200 ppm in series [4] was 80 to 100%. The inhibition at 200 ppm in series [5] fell in the range of 80 to 100%. Also, the inhibition at 200 ppm in series [6] lay within 80 to 100%.
Regarding `C#CCOc1ccc(CCNC(=O)C(OCC#C)c2ccc(CC)cc2)cc1OC` (stereo not drawn) [Compound E1.053, 2-(4-ethyl-phenyl)-N-[2-(3-methoxy-4-prop-2-ynyloxy-phenyl)-ethyl]-2-prop-2-ynyloxy-acetamide], the inhibition at 200 ppm in series [1], in series [2], in series [3], in series [4], in series [5] and in series [6] was 80 to 100% in each case.
As for `C#CCOc1ccc(CCNC(=O)C(OCC#C)c2ccc(F)c(F)c2)cc1OC` (stereo not drawn) [Compound E1.085, 2-(3,4-difluoro-phenyl)-N-[2-(3-methoxy-4-prop-2-ynyloxy-phenyl)-ethyl]-2-prop-2-ynyloxy-acetamide], the inhibition at 200 ppm in series [1], in series [2], in series [3], in series [4], in series [5] and in series [6] was 80 to 100% in each case.
Regarding `C#CCOc1ccc(CCNC(=O)C(OCC#C)c2ccc(F)c(Cl)c2)cc1OC` (stereo not drawn) [Compound E1.090, 2-(3-chloro-4-fluoro-phenyl)-N-[2-(3-methoxy-4-prop-2-ynyloxy-phenyl)-ethyl]-2-prop-2-ynyloxy-acetamide], the inhibition at 200 ppm in series [1], in series [2], in series [3], in series [4], in series [5] and in series [6] was 80 to 100% in each case.
For `C#CCOc1ccc(CCNC(=O)C(OCC#C)c2ccc(Cl)c(F)c2)cc1OC` (stereo not drawn) [Compound E1.091, 2-(3-fluoro-4-chloro-phenyl)-N-[2-(3-methoxy-4-prop-2-ynyloxy-phenyl)-ethyl]-2-prop-2-ynyloxy-acetamide], the inhibition at 200 ppm in series [1], in series [2], in series [3], in series [4], in series [5] and in series [6] was 80 to 100% in each case.
With `C#CCOc1ccc(CCNC(=O)C(OCC#C)c2ccc(Cl)c(Cl)c2)cc1OC` (stereo not drawn) [Compound E1.102, 2-(3,4-dichloro-phenyl)-N-[2-(3-methoxy-4-prop-2-ynyloxy-phenyl)-ethyl]-2-prop-2-ynyloxy-acetamide], the inhibition at 200 ppm in series [1], in series [2], in series [3], in series [4], in series [5] and in series [6] was 80 to 100% each time.
